# Experimental data: a melting point compilation (Tetko et al.; mined from patent text by program, amines drawn as free bases though some values may be those of a salt)
row,SMILES,melting point [°C]
1,O=CC(=Cc1cccc(OCc2ccc(Cl)cc2)c1)C(C=O)=Cc1cccc(OCc2ccc(Cl)cc2)c1,193 to 194
2,CCCN(CCC)C(=O)c1n[nH]c2c(=O)[nH]c3cc(Cl)ccc3c(=O)c12,270
3,OCCCSc1csc2ccccc12,154 to 155
4,CC(=O)N1CC(CCN2CC=C(c3ccccc3)CC2)c2ccccc21 (configuration not stated),109 to 111
5,CCOC(=O)c1cc(C(=O)c2cccc(S(=O)(=O)F)c2)sc1N=Nc1ccc(O)c(N)n1,170 to 172
6,CC(=O)NCC(=O)NS(=O)(=O)c1ccc(-c2c(-c3ccccc3)noc2C)cc1,218 to 219
7,COc1ccc(C2=NN(c3ccccc3)C(=O)[C@H]3CC=CC[C@@H]23)cc1OC (relative stereo),134 to 135
8,O=C(Nc1cccc(Br)n1)Nc1cccc2c1C1CC3(CCN1C2=O)SCCS3 (configuration not stated),170
9,O=C(c1ccc(-c2ccsc2)cc1Cl)c1cccc2c1Nc1ncccc1CN2,125 to 130
10,CN(Cc1sc2c(=O)c(C(=O)NCc3ccc(Cl)cc3)cn(C)c2c1COCC[Si](C)(C)C)C[C@@H](O)c1ccco1,110 to 113
11,O=[N+]([O-])CCN1CCC(n2ccc(-c3ccc(F)cc3)c2-c2ccncc2)CC1,172 to 173
12,COC(=O)N[C@@H](C)CNc1nccc(-c2cn(C(C)C)nc2-c2cc(Cl)cc(NS(C)(=O)=O)c2F)n1,150 to 152
13,O=C(O)CCCC/C=C(\c1ccc(-c2nc(C(=O)NCCCCCOc3ccccc3)co2)cc1)c1cccnc1,42 to 48
14,Cc1cc2c(s1)N(C(C)C)c1ccccc1N=C2N1CCN(C)CC1,120 to 121
15,COc1cc(OCc2ccccn2)ccc1/C=C/C(=O)CC(=O)/C=C/c1c[nH]c2ccc(F)cc12,183 to 186
16,NC(=O)c1nn(-c2ccccc2)c2ccccc12,149
17,CCC(=O)c1cnc2c(c1)oc(=O)n2C,110 to 112
18,CCOC(=O)c1cc(-c2ccc(Br)cc2)n(-c2ccc(S(C)(=O)=O)cc2)n1,176
19,CCCCc1ccc(NC(=O)CN(C)C)c(N)c1,66 to 68
20,CCCCOc1cc(C)c(NC(=O)C(C)Br)c(C)c1 (configuration not stated),132 to 134
21,CNS(=O)(=O)c1cc(S(=O)(=O)NC)c(C(Cl)=C(Cl)Cl)cc1N,211 to 212
22,CC1CCN(CC#CCN2C(=O)c3cccc4c3N(CC4)c3ccccc32)CC1,157 to 158
23,CC(=O)OC1CSC(Oc2c(C)ccnc2Cl)C(OC(C)=O)C1OC(C)=O (configuration not stated),144
24,CCOC(=O)c1cn2c(cc(OC(C)C)c3ccccc32)n1,127 to 129
25,CC(C)=Cc1sc(C#N)c2c1C(=O)CC(C)(C)C2,115 to 117

row,SMILES,melting point [°C]
1,O=C(CCl)Nc1c(S)cccc1Cl,186 to 187
2,Cc1ccc(F)c2c1NC(=O)C21COc2cc3c(cc21)CCO3 (configuration not stated),> 250
3,CC(C)(C)c1ccc(C(=O)Nc2cn3nc(NC4CCCC4)ccc3n2)cc1,272 to 273
4,CCOC(=O)C(C)=CC=CC(C)=CC=CC=C(C)C=O,120 to 121
5,CNC(=O)[C@@H]1C=CCN1S(=O)(=O)c1ccc(Cl)c(CBr)c1Cl,66
6,CCCCN(CCCC)c1ccc(C=Cc2ccc(C=CC3=C(C#N)C(=C(C#N)C#N)OC3(C)C)s2)c(OCc2ccccc2)c1,218 to 219
7,COc1ccc(S(=O)(=O)C2(C(=O)NO)CCN(CC=C(C)C)CC2)cc1,142 to 145
8,CC(C)c1ccc(-n2ncc(C(=O)NC34CC5CC(CC(C5)C3)C4)c2OCCN2CCOCC2)cc1,132 to 134
9,CCc1nc2c(cnn2CC)c(NC2CCOCC2)c1CNC(=O)c1cccc(C(=O)NCc2ccc(Cl)c(-c3cccc(C=O)c3)c2)c1,131 to 134
10,CC(=O)/C=C(\C)c1ccc(C2CCCCC2)cc1,49 to 50
11,COC(=O)C=C1CCOc2ccc(Cl)cc21,113 to 115
12,Cc1ccc(C(=O)Nc2cc(-c3cccnc3)cc(C(F)(F)F)c2)cc1Nc1nccc(-c2cccnc2)n1,275 to 279
13,O=C(NCC(=O)c1cccs1)c1ccc(F)cc1,147 to 148
14,CNC(=O)Nc1ccc(-c2c[nH]c(=O)cn2)cc1,> 300
15,CCOc1cc(-c2cc(C(F)(F)F)n3ncc(C(=O)Nc4nc(C)c(S(=O)(=O)NC(C)(C)CO)s4)c3n2)ccc1C(F)(F)F,276
16,COc1ccc(C(=O)N2CCCC2=O)cc1O,123 to 125
17,O=C(Nc1cccc2c1C(=O)c1c-2n[nH]c1-c1ccc(C(=O)N2CCN(c3ccccn3)CC2)s1)NN1CCOCC1,201 to 202
18,Cn1cc(CN2C(=O)C3(COc4cc5c(cc43)OCCO5)c3ccccc32)ccc1=O (configuration not stated),205 to 207
19,Cc1ccn(NS(=O)n2ccnc2)c(=N)c1 (configuration not stated),176 to 177
20,COC(=O)CCC/C=C\CN1C(=O)c2ccccc2C1=O,47 to 49
21,Cn1cc(CCl)c(-c2ccc(Cl)cc2C(=O)c2ccccc2F)n1,153 to 155
22,O=C(CN1CCC(Cc2ccccc2)CC1)Nc1ccc2[nH]c(=O)oc2c1,210 to 212
23,CC(=O)n1nc(-c2cnccn2)nc1-c1cnccn1,128 to 130
24,CC(=NO)C(C)(C)NCCN(C)NC(C)(C)C(Cn1ccnc1[N+](=O)[O-])=NO,156 to 158
25,O=c1c2cccc(F)c2nc2sccn12,187 to 189

row,SMILES,melting point [°C]
1,CSc1ccc(-c2coc3ncc(-c4nnc(C)o4)cc23)cc1,209 to 210
2,Cc1cn(CC(=O)N(CCNC(=O)OC(C)(C)C)CC(=O)O)c(=O)[nH]c1=O,142 to 147
3,CCc1cccc(C)c1N1C(=O)CCN(CC)C1=S,74 to 77
4,OC1(c2ccc(F)cc2)CCN(CCCc2noc3cc(F)ccc23)CC1,100 to 101
5,COc1ccc(C2=NN(C3CCN(c4ncccn4)CC3)C(=O)[C@@H]3CC=CC[C@H]23)cc1OC,163 to 166
6,CC12CCC(=O)C=C1CCC1C2=CCC2(C)C1CCC2(OC=O)C(=O)CCl (configuration not stated),203
7,Cc1c(F)cccc1Cc1c(-c2ccccc2)c2ccccn2c1C(=O)N1CCN(C(=O)OC(C)(C)C)[C@@H](CCO)C1,85
8,CCOc1nc(C(F)(F)C(F)(F)F)cc(=O)n1-c1cc(O)c(Cl)cc1F,117 to 120
9,Nc1c(Cl)cc(C(O)CNCCCCCCOCCCCCCc2cnccn2)cc1Cl (configuration not stated),60 to 63
10,COc1ccc(-c2c(N)cnc3ccc(Cl)cc23)cc1OC,187 to 190
11,COC(=O)CCC1=NC=C(c2ccc3c(c2)NC(=O)CO3)C(c2ccccc2)S1 (configuration not stated),119 to 121
12,O=[N+]([O-])c1cc2c(c([N+](=O)[O-])c1)NCC2,244 to 245
13,Cc1cc2[nH]nnc2c(Br)c1C,255 to 262
14,Cn1c2cc(OCCO)ccc2c2c3c(c(-c4ccccc4Cl)cc21)C(=O)NC3=O,309 to 312
15,CC1=CC(=O)c2cc(O)ccc2C1=O,175
16,O=C(O)CCCN(C(=O)c1ccc(Cl)cc1)c1cccc2ccccc12,173 to 174
17,OCc1ccc(-c2cccc(-c3cn([C@H]4CN5CCC4CC5)nn3)c2)s1,176
18,CC(=O)NC1CCN(c2nc(Nc3ccc(F)cc3F)c(C(=O)O)cc2F)C1 (configuration not stated),232 to 234
19,CCC1c2ccc(F)n2-c2ccc(F)cc2N1S(=O)(=O)c1ccc(O)cc1 (configuration not stated),169 to 171
20,CN1CCN(Cc2ccccc2Cl)C(C(=O)NCCCl)C1 (configuration not stated),74 to 75
21,COc1c(Cl)cc(C(=O)Cl)cc1Cl,153 to 157
22,Cc1ccc2nc(N3CCN(c4ncccc4Cl)CC3)[nH]c2c1,258 to 259
23,CC12CCCc3cc(NC(=O)c4ccc(C(=O)O)cn4)cc(c31)CCC2,212 to 213
24,CCCc1c(OCC(O)COc2cccc(NC(=O)C(=O)OCC)c2)ccc(C(C)=O)c1O (configuration not stated),98 to 101
25,CCOC(=O)C(C(=O)Nc1nccs1)C(=O)c1cccc(C(F)(F)F)c1NC(=O)C(Cl)C(C)(C)C (configuration not stated),180

row,SMILES,melting point [°C]
1,Cc1ccc(-c2[nH]c(-c3ccc4ccccc4c3)nc2C(=O)Nc2nccs2)cc1,> 250
2,O=C1c2cscc2C(=O)c2cscc21,340
3,N#Cc1ccc(-c2cn(-c3ccc(I)cc3)c(SCc3ccccn3)n2)cc1,180 to 184
4,Cc1cc([N+](=O)[O-])c(C(=O)OC(C)C)cc1Oc1ccc(OC(F)(F)F)cc1,47 to 49
5,CN1C(=O)N(c2ccccc2O)Cc2cnc(Nc3ccccc3)nc21,192
6,CC=CC(=O)Oc1ccc(Nc2ccccc2)cc1,73 to 76
7,Cc1cccc(C)c1NC(=O)C=CC(=O)c1ccc(Cl)c(Cl)c1,213 to 215
8,COc1cc(OC)nc(NC(=O)NS(=O)(=O)c2nccn2-c2nn(C)cc2Cl)n1,164 to 165
9,Brc1cnc2c(c1)ncn2-c1cccc(-n2ccnc2)c1,236 to 238
10,Cn1ccnc1C(=O)c1[nH]c2ccc(Cl)cc2c1CC(=O)O,230 to 233
11,O=S(=O)(NCc1ccnc2c(Cl)cccc12)c1ccc(-c2ccc(C(F)(F)F)cc2C(F)(F)F)cc1,184 to 185
12,O=C(O)c1cccc(CCc2n[nH]c3c2c(=O)n(-c2ccccc2)c2ncccc32)c1,159 to 161
13,"Clc1ccc(C2CN3CCN=C3c3ccccc32)cc1 (single isomer, unassigned; (-))",184
14,O=C(Nc1ccc(Sc2ccncc2)cc1)c1ccc([N+](=O)[O-])cc1,295 to 298
15,CC(=O)Nc1ccccc1OC(CCc1ccc(Cl)cc1)Cn1ccnc1 (configuration not stated),151 to 152
16,COc1cc(OC)c2c(=O)[nH]c(-c3cc(C)c(O)c(C)c3)nc2c1,291 to 293
17,O=C(O)CCc1cc(C(c2cc(F)ccc2F)S(=O)(=O)c2ccc(C(F)(F)F)cc2)c(Cl)cn1 (configuration not stated),166 to 167
18,COc1cc2c(c(OC(C)=O)c1)C1CCC3(C)C(OC(C)=O)CCC3C1CC2 (configuration not stated),120 to 121
19,Cc1cc(C)c2nc3n(c(=O)c2c1)-c1ccc(F)cc1C3=O,275 to 277
20,O=C(O)c1cn(CC2CC2)c2cc(Cl)ccc12,219 to 220
21,CC1=CC(=C(C#N)C#N)C=C(C)S1(=O)=O,176 to 177
22,N#Cc1ccc2c(c1)C(=O)C1(CC1)O2,148 to 149
